Assay results published in PubChem BioAssay (NCI).
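Method: 48-hour compound exposure of cells in 96-well plates, five concentrations, linear interpolation of endpoints. TGI: total growth inhibition.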

Experiments:
Assay in all cases: inhibition of tumour cell growth, NCI panel, 48 h
LOX IMVI melanoma = tested on: LOX IMVI melanoma
MOLT-4 leukemia = tested on: MOLT-4 leukemia
K-562 leukemia = tested on: K-562 leukemia
COLO 205 colon = tested on: COLO 205 colon
UACC-62 melanoma = tested on: UACC-62 melanoma
MDA-MB-435 = tested on: MDA-MB-435
IGROV1 ovarian = tested on: IGROV1 ovarian
SN12C renal = tested on: SN12C renal
KM12 colon = tested on: KM12 colon
CCRF-CEM leukemia = tested on: CCRF-CEM leukemia
SK-OV-3 ovarian = tested on: SK-OV-3 ovarian
SNB-19 CNS = tested on: SNB-19 CNS
SR leukemia = tested on: SR leukemia
NCI-H226 lung = tested on: NCI-H226 lung
786-0 renal = tested on: 786-0 renal
MCF7 breast = tested on: MCF7 breast
NCI-H23 lung = tested on: NCI-H23 lung
OVCAR-3 ovarian = tested on: OVCAR-3 ovarian
SF-539 CNS = tested on: SF-539 CNS
OVCAR-4 ovarian = tested on: OVCAR-4 ovarian
CAKI-1 renal = tested on: CAKI-1 renal
A498 renal = tested on: A498 renal
HS 578T breast = tested on: HS 578T breast
NCI-H522 lung = tested on: NCI-H522 lung
UO-31 renal = tested on: UO-31 renal
T-47D breast = tested on: T-47D breast
NCI-H460 lung = tested on: NCI-H460 lung
UACC-257 melanoma = tested on: UACC-257 melanoma
SK-MEL-2 melanoma = tested on: SK-MEL-2 melanoma
MDA-MB-231 breast = tested on: MDA-MB-231 breast
RXF 393 renal = tested on: RXF 393 renal
BT-549 breast = tested on: BT-549 breast
DU-145 prostate = tested on: DU-145 prostate
SW-620 colon = tested on: SW-620 colon
PC-3 prostate = tested on: PC-3 prostate
HL-60(TB) leukemia = tested on: HL-60(TB) leukemia
SK-MEL-5 melanoma = tested on: SK-MEL-5 melanoma
MDA-N = tested on: MDA-N
HCT-116 colon = tested on: HCT-116 colon
HOP-92 NSCLC = tested on: HOP-92 NSCLC
NCI/ADR-RES ovarian = tested on: NCI/ADR-RES ovarian
HT29 colon = tested on: HT29 colon
HCC-2998 colon = tested on: HCC-2998 colon
HCT-15 colon = tested on: HCT-15 colon
A549 NSCLC = tested on: A549 NSCLC
TK-10 renal = tested on: TK-10 renal
SF-295 CNS = tested on: SF-295 CNS
U251 CNS = tested on: U251 CNS
ACHN renal = tested on: ACHN renal
MALME-3M melanoma = tested on: MALME-3M melanoma
OVCAR-5 ovarian = tested on: OVCAR-5 ovarian
EKVX NSCLC = tested on: EKVX NSCLC
RPMI-8226 leukemia = tested on: RPMI-8226 leukemia
OVCAR-8 ovarian = tested on: OVCAR-8 ovarian
M14 melanoma = tested on: M14 melanoma
HOP-62 NSCLC = tested on: HOP-62 NSCLC
SNB-75 CNS = tested on: SNB-75 CNS
SF-268 CNS = tested on: SF-268 CNS
SK-MEL-28 melanoma = tested on: SK-MEL-28 melanoma

CCCCc1ccc(Nc2nc(=S)c3ncn(COCCO)c3[nH]2)cc1
TGI (LOX IMVI melanoma): 76.1 µM | TGI (MOLT-4 leukemia): > 100 µM | TGI (K-562 leukemia): 51.7 µM | TGI (COLO 205 colon): 44.5 µM | TGI (UACC-62 melanoma): > 100 µM | TGI (MDA-MB-435): > 100 µM | TGI (IGROV1 ovarian): > 100 µM | TGI (SN12C renal): > 100 µM | TGI (KM12 colon): > 100 µM | TGI (CCRF-CEM leukemia): 59.7 µM | TGI (SK-OV-3 ovarian): > 100 µM | TGI (SNB-19 CNS): > 100 µM | TGI (SR leukemia): 66.7 µM | TGI (NCI-H226 lung): > 100 µM | TGI (786-0 renal): > 100 µM | TGI (MCF7 breast): 54.1 µM | TGI (NCI-H23 lung): > 100 µM | TGI (OVCAR-3 ovarian): 74.4 µM | TGI (SF-539 CNS): > 100 µM | TGI (OVCAR-4 ovarian): > 100 µM | TGI (CAKI-1 renal): > 100 µM | TGI (A498 renal): > 100 µM | TGI (HS 578T breast): > 100 µM | TGI (NCI-H522 lung): 51.3 µM | TGI (UO-31 renal): > 100 µM | TGI (T-47D breast): 46.8 µM | TGI (NCI-H460 lung): > 100 µM | TGI (UACC-257 melanoma): > 100 µM | TGI (SK-MEL-2 melanoma): 90.4 µM | TGI (MDA-MB-231 breast): 57.6 µM | TGI (RXF 393 renal): > 100 µM | TGI (BT-549 breast): > 100 µM | TGI (DU-145 prostate): > 100 µM | TGI (SW-620 colon): > 100 µM | TGI (PC-3 prostate): > 100 µM | TGI (HL-60(TB) leukemia): 54.4 µM | TGI (SK-MEL-5 melanoma): > 100 µM | TGI (MDA-N): > 100 µM | TGI (HCT-116 colon): > 100 µM | TGI (HOP-92 NSCLC): 63.4 µM | TGI (NCI/ADR-RES ovarian): > 100 µM | TGI (HT29 colon): > 100 µM | TGI (HCC-2998 colon): > 100 µM | TGI (HCT-15 colon): > 100 µM | TGI (A549 NSCLC): > 100 µM | TGI (TK-10 renal): > 100 µM | TGI (SF-295 CNS): > 100 µM | TGI (U251 CNS): > 100 µM | TGI (ACHN renal): > 100 µM | TGI (MALME-3M melanoma): 47.1 µM | TGI (OVCAR-5 ovarian): > 100 µM | TGI (EKVX NSCLC): > 100 µM | TGI (RPMI-8226 leukemia): 54 µM | TGI (OVCAR-8 ovarian): > 100 µM | TGI (M14 melanoma): > 100 µM | TGI (HOP-62 NSCLC): > 100 µM | TGI (SNB-75 CNS): 97.9 µM

O=c1[nH]nc(Cc2ccccc2)n1/N=C\CC/C=N\n1c(Cc2ccccc2)n[nH]c1=O
TGI (LOX IMVI melanoma): > 100 µM | TGI (MOLT-4 leukemia): > 100 µM | TGI (K-562 leukemia): > 100 µM | TGI (COLO 205 colon): > 100 µM | TGI (UACC-62 melanoma): 46.6 µM | TGI (MDA-MB-435): > 100 µM | TGI (IGROV1 ovarian): 40.7 µM | TGI (SN12C renal): > 100 µM | TGI (KM12 colon): > 100 µM | TGI (CCRF-CEM leukemia): > 100 µM | TGI (SK-OV-3 ovarian): > 100 µM | TGI (SNB-19 CNS): > 100 µM | TGI (SR leukemia): > 100 µM | TGI (NCI-H226 lung): 83.1 µM | TGI (786-0 renal): > 100 µM | TGI (MCF7 breast): > 100 µM | TGI (NCI-H23 lung): 66.6 µM | TGI (OVCAR-3 ovarian): > 100 µM | TGI (SF-539 CNS): 66.3 µM | TGI (SF-268 CNS): 77.7 µM | TGI (OVCAR-4 ovarian): > 100 µM | TGI (CAKI-1 renal): > 100 µM | TGI (A498 renal): > 100 µM | TGI (HS 578T breast): 53.1 µM | TGI (NCI-H522 lung): > 100 µM | TGI (UO-31 renal): > 100 µM | TGI (T-47D breast): > 100 µM | TGI (SK-MEL-28 melanoma): > 100 µM | TGI (UACC-257 melanoma): > 100 µM | TGI (SK-MEL-2 melanoma): 90.3 µM | TGI (MDA-MB-231 breast): > 100 µM | TGI (RXF 393 renal): 72.5 µM | TGI (BT-549 breast): > 100 µM | TGI (DU-145 prostate): > 100 µM | TGI (SW-620 colon): > 100 µM | TGI (PC-3 prostate): > 100 µM | TGI (HL-60(TB) leukemia): > 100 µM | TGI (SK-MEL-5 melanoma): > 100 µM | TGI (MDA-N): > 100 µM | TGI (HCT-116 colon): 48.7 µM | TGI (HOP-92 NSCLC): > 100 µM | TGI (NCI/ADR-RES ovarian): 41.5 µM | TGI (HT29 colon): 83.3 µM | TGI (HCC-2998 colon): > 100 µM | TGI (HCT-15 colon): 75 µM | TGI (A549 NSCLC): > 100 µM | TGI (TK-10 renal): > 100 µM | TGI (SF-295 CNS): > 100 µM | TGI (U251 CNS): > 100 µM | TGI (ACHN renal): > 100 µM | TGI (MALME-3M melanoma): 77.7 µM | TGI (OVCAR-5 ovarian): > 100 µM | TGI (EKVX NSCLC): > 100 µM | TGI (RPMI-8226 leukemia): 80.9 µM | TGI (OVCAR-8 ovarian): 58.9 µM | TGI (M14 melanoma): > 100 µM | TGI (HOP-62 NSCLC): 88.4 µM | TGI (SNB-75 CNS): 58.7 µM
